# Assay results taken from PMC6411103, “TAK-071, a muscarinic M1 receptor positive allosteric modulator, attenuates scopolamine-induced quantitative electroencephalogram power spectral changes in cynomolgus monkeys” (PLoS ONE, 2019).
# Structures can show the parent of a compound that is named as a salt. Where two headings read alike, the source gives them in different places.
# Key:
# [1] = design: method as in PMID 26116126; details: direct radiolabeling; cited from earlier work
# [2] = design: method as in PMID 29563325; details: cited from earlier work
# cynomolgus monkeys [3] = assay: qEEG power spectra after treatment with drug alone (radio-telemetry EEG); type: in vivo, cynomolgus monkeys (Macaca fascicularis)
# Experimental: (§1) Implant surgery was carried out at Hamri Company Limited (Ibaraki, Japan). Briefly, under isoflurane anesthesia (1–5%, Pfizer Japan Inc., Tokyo, Japan), male cynomolgus monkeys (3–5 years old, Hamri Co., Ltd., Ibaraki, Japan) were surgically implanted with radio-telemetry transmitters (TL10M3-D70-EEE, Data Sciences International Inc., St. Paul, MN). EEG leads were stereotaxically positioned in the parietal area and secured to the cranium with stainless-steel screws in contact with the dura. […] Bilateral electromyography (EMG) leads were implanted in the back cervical muscles. After surgery, each monkey was administered penicillin (100,000 units/animal, i.m., Meiji Seika Pharma Co., Ltd., Tokyo, Japan), buprenorphine (0.02 mg/kg, i.m., Otsuka Pharmaceutical Co., Ltd., Tokyo, Japan), and prednisolone (1 mg/kg, subcutaneously [s.c.], Kyoritsu Seiyaku Co., Ltd., Tokyo, Japan) daily for one week.
# (§2) TAK-071, 4-fluoro-2-[(3S,4S)-4-hydroxytetrahydro-2H-pyran-3-yl]-5-methyl-6-[4-(1H-pyrazol-1-yl)benzyl]-2,3-dihydro-1H-isoindol-1-one, was synthesized by Takeda Pharmaceutical Company Limited (Kanagawa, Japan). Donepezil hydrochloride and xanomeline oxalate were purchased from Mega Fine Pharma (P) Limited (Mumbai, India) and Metina AB (Lund, Sweden), respectively. […] TAK-071 and donepezil hydrochloride were suspended in 0.5% (w/v) methylcellulose in distilled water and the volume of administration was 2 mL/kg orally (p.o.). […] The doses of compounds correspond to their salt forms. The administration was scheduled according to a 3×3 cross-over design.
# (§3) After at least a 1-month recovery period in their home cages, the monkeys were habituated to the recording chamber (acrylic cage, 60 × 55 × 75 [cm^3 width × depth × height]) located in a soundproof, electrically shielded room. Cortical EEG, EMG, and EOG signals were recorded at a sampling rate of 500 Hz using Dataquest ART software (Data Sciences International, New Brighton, MN). The behavioral and postural changes of the animals were observed using a video camera continuously throughout the experiment. The recordings were performed between 9 a.m. and 4 p.m..
# (§4) EEG data were analyzed off-line using SleepSign (KISSEI COMTEC Co., Ltd., Nagano, Japan). Digitized EEG signals were high-pass filtered with a 0.75-Hz filter. Spectral power densities for each frequency band were calculated by fast Fourier transform in consecutive 10-s epochs. Epochs containing abnormal EEG, defined by excessive amplitude (> 500 μV), were omitted from data analysis. For analysis of temporal changes in a specific spectral band (1–4 Hz for delta, 4–8 Hz for theta, 8–12 Hz for alpha, 12–30 Hz for beta, 30–80 Hz for gamma), the EEG power of each spectral band was calculated every 15 min. For each animal, the qEEG spectral analyses were performed from 30 to 240 min after treatment because oral and subcutaneous administration of drugs to monkeys can affect the qEEG power spectra. Data obtained in the post-drug period were normalized with those obtained in the baseline period and were calculated as the area under the curve (AUC) between 30 and 210 min after drug administration for quantitative analyses.
# cynomolgus monkeys [4] = assay: scopolamine-induced qEEG spectral changes (scopolamine challenge paradigm); type: in vivo, cynomolgus monkeys (Macaca fascicularis)
# Experimental: as §1, §2, §3, §4
# rats = test system: rats; design: method as in PMID 30089885; details: TAK-071 0.3 mg/kg; cited from earlier work
# [5] = design: method as in PMID 30089885; details: rats, TAK-071 0.3 mg/kg; cited from earlier work
# M1R = test system: M1R; design: method as in PMID 30089885; details: previous study; cited from earlier work
# monkeys [6] = details: cited from earlier work
# freely moving rats = test system: freely moving rats; design: method as in PMID 25181033, PMID 26901596; details: cited from earlier work
# patients with AD = test system: patients with AD; design: method as in PMID 14626697; details: cited from earlier work
# healthy young volunteers = test system: healthy young volunteers; design: method as in PMID 1375552; details: cited from earlier work
# monkeys [7] = test system: monkeys; design: method as in PMID 17657478, PMID 25491927; details: scopolamine 20–50 μg/kg; cited from earlier work
# healthy subjects = healthy subjects after scopolamine treatment; cited from earlier work
# monkeys [8] = details: xanomeline 1 mg/kg subcutaneous; cited from earlier work
# [9] = TAK-071 3 mg/kg p.o. simultaneously with scopolamine 25 μg/kg s.c., P ≤ 0.05
# [10] = donepezil alone, 0.3 and 3 mg/kg p.o.
# [11] = donepezil 3 mg/kg p.o. simultaneously with scopolamine 25 μg/kg s.c.
# [12] = xanomeline 1 mg/kg s.c. simultaneously with scopolamine 25 μg/kg s.c., not statistically significant
compound,measurement,setting,value
Cc1cc(F)c2[nH]c(=O)n(C3CCN(C4CCOCC4)CC3)c2c1 [GSK1034702],brain uptake by PET,[1],good brain uptake
Cc1ccc(Cc2cc3c(=O)n([C@H]4CCCC[C@@H]4O)cnc3c3ccccc23)cn1 [MK-7622],alpha power band,[2],reductions
same,theta power band,[2],reductions
"Cc1c(Cc2ccc(-n3cccn3)cc2)cc2c(c1F)CN([C@H]1COCC[C@@H]1O)C2=O [TAK-071, 4-fluoro-2-[(3S,4S)-4-hydroxytetrahydro-2H-pyran-3-yl]-5-methyl-6-[4-(1H-pyrazol-1-yl)benzyl]-2,3-dihydro-1H-isoindol-1-one]",theta power band of qEEG spectra,"cynomolgus monkeys [3]; TAK-071 alone, 1 mg/kg p.o., P ≤ 0.05 vs vehicle",significantly decreased
same,delta power band of qEEG spectra,"cynomolgus monkeys [3]; TAK-071 alone, 0.3–3 mg/kg p.o.",did not change
same,alpha power band of qEEG spectra,"cynomolgus monkeys [3]; TAK-071 alone, 1 and 3 mg/kg p.o., P ≤ 0.05 vs vehicle",significantly decreased
same,scopolamine-induced increase in alpha power band,"cynomolgus monkeys [4]; TAK-071 1 mg/kg p.o. simultaneously with scopolamine 25 μg/kg s.c., P ≤ 0.05",significantly reduced
same,scopolamine-induced increase in alpha power band,cynomolgus monkeys [4]; [9],significantly suppressed
same,scopolamine-induced increase in theta power band,cynomolgus monkeys [4]; [9],significantly suppressed
same,scopolamine-induced increase in delta power band,"cynomolgus monkeys [4]; TAK-071 1 and 3 mg/kg p.o. simultaneously with scopolamine 25 μg/kg s.c., no significant effect",a decreasing trend was observed
same,scopolamine-induced cognitive deficits,rats,significantly ameliorated
same,maximum plasma concentration,[5],232 ng/mL
same,selectivity as M1 PAM,M1R,highly selective M1 PAM
"COc1cc2c(cc1OC)C(=O)C(CC1CCN(Cc3ccccc3)CC1)C2 (centres unmarked) [donepezil, Donepezil hydrochloride]",alpha power band of qEEG spectra,"cynomolgus monkeys [3]; donepezil alone, 0.3 mg/kg p.o., dose-dependency not observed",increased
same,delta power band of qEEG spectra,cynomolgus monkeys [3]; [10],did not affect
same,theta power band of qEEG spectra,cynomolgus monkeys [3]; [10],did not affect
same,scopolamine-induced increase in alpha power band,cynomolgus monkeys [4]; [11],tended to be attenuated
same,scopolamine-induced increase in theta power band,cynomolgus monkeys [4]; [11],tended to be attenuated
same,scopolamine-induced increase in delta power band,"cynomolgus monkeys [4]; donepezil 3 mg/kg p.o. simultaneously with scopolamine 25 μg/kg s.c., P ≤ 0.05 vs scopolamine",significantly suppressed
same,scopolamine-induced cognitive deficits,monkeys [6]; oral administration of 3 mg/kg donepezil,improved
same,scopolamine-induced cognitive deficits,monkeys [6]; oral donepezil 1–3 mg/kg,significantly attenuated
same,delta power band after treatment with scopolamine,freely moving rats,decreased
same,alpha activity,patients with AD,increased
same,beta activity,patients with AD,increased
same,delta activity,patients with AD,significantly decreased
COc1ccc2c3c1O[C@H]1C[C@@H](O)C=C[C@@]31CCN(C)C2 [galantamine],theta power band,healthy young volunteers,did not change
CCN(C)C(=O)Oc1cccc([C@H](C)N(C)C)c1 [rivastigmine],delta power band after treatment with scopolamine,freely moving rats,decreased
"CN1[C@@H]2C[C@@H](OC(=O)[C@H](CO)c3ccccc3)C[C@H]1[C@@H]1O[C@@H]12 [scopolamine, Scopolamine hydrobromide]","alpha, theta, and delta power bands, dose-dependency","cynomolgus monkeys [3]; scopolamine 25, 50, or 100 μg/kg s.c.","increased alpha, theta, and delta power bands in a dose-dependent manner"
same,persistence of effects in all power bands after treatment,cynomolgus monkeys [3]; scopolamine 25-100 μg/kg s.c.,240 min
same,cognitive impairment,monkeys [7],moderately caused cognitive impairment
same,"alpha power band, resting state",healthy subjects,decrease
same,"delta power band, resting state",healthy subjects,increase
Nc1c2c(nc3ccccc13)CCCC2 [tacrine],delta power band after treatment with scopolamine,freely moving rats,decreased
"CCCCCCOc1nsnc1C1=CCCN(C)C1 [xanomeline, xanomeline oxalate]",scopolamine-induced increase in alpha power band,cynomolgus monkeys [4]; [12],showed a trend to suppress
same,scopolamine-induced increase in delta power band,cynomolgus monkeys [4]; [12],showed a trend to suppress
same,scopolamine-induced increase in theta power band,cynomolgus monkeys [4]; [12],showed a trend to suppress
same,scopolamine-induced cognitive deficits,monkeys [6]; intramuscular administration of 0.1 mg/kg xanomeline,improved
same,antipsychotic-like activity and sedative effects,monkeys [8],exhibited antipsychotic-like activity without inducing sedative effects
